“And” between values parts separate entries of the source, which are not always exact repeats. Equal values may be shown once. Where no end group is shown, it is not given here.
System: MVF-PD-L1 peptide immunogen
Experiment: Immunogenicity in Balb/c mice, experiment 1 (CT26 WT): ELISA of sera vs each MVF-PD-L1 peptide immunogen
Type: in vivo
Conditions: for Immunogenicity (titers) 1′ Conc. 1:: Balb/c mice
Method: Immunogenicity of MVF-PD-L1 B-cell epitopes. New Zealand White rabbits were immunized with 1 mg of each MVF-peptide immunogens dissolved in dd H2O emulsified (1:1) in Montanide ISA 720 vehicle (Seppic) with 333 μg of N-acetylglucosamine-3yl-acetyl-1-alanyl-d-isoglutamine (nor-MDP). Rabbits were boosted with the same doses at 3-week's intervals. Blood was collected via the central auricular artery in rabbits. Blood was collected weekly (1Y+3, 2Y+1, 2Y+2,2Y+3, 3Y+1, 3Y+2 and sera tested for antibody titers by ELISA using the immunogens MVF-PD-L1 peptides. Sera (terminal) from rabbit (3Y+3) immunized with MVF-PD-1 peptide immunogens were tested individually versus the immunogen by ELISA. 200 ng/well peptide were used in duplicates to coat the ELISA plates. Titers are defined as the highest dilution of sera with an absorbance value of 0.2 after subtracting the blank.
FIGS. 5A, 5B, 5C, and 5D show the experimental scheme to test the immunization with PD-L1 in Balb/c mice. […] Balb/c mice 6-8 weeks old, were immunized with MVF-peptide immunogens emulsified in ISA 720 with nor-MDP three times and three weeks apart. Mice were immunized with MVF-PD-L1 vaccine constructs [PD-L1(36-53), PD-L1(50-67), PD-L1(95-112), PD-L1(130-147)] prior to tumor challenge. Blood was collected weekly and sera tested for antibody titers by ELISA. Two weeks after the third immunization (3Y), the mice were engrafted with CT26 WT tumor cells 10^5 per mouse Control mice were treated twice weekly with PBS as negative control and twice weekly with anti-mPD-L1 mAb (10F.9G2) as positive control starting 2 days after tumor challenge. Tumor growths were observed twice weekly and measured by calipers.
Immunogenicity of MVF-PD-L1 peptides in BALB/c mice immunized with various peptide constructs. Sera collected weekly were tittered against each individual MVF-PD-L1 peptide immunogen. The Pink bar refers to titers versus PD-L1 130 and the red bar refers to titers versus PD-1 (92-110).
In order to verify the efficacy of the PD-L1 epitope vaccines in vivo in the CT26 carcinoma cell line, Balb/c mice (10 mice/group) were immunized with 100 μg each of MVF-PD-L1 (36-53), MVF-PD-L1 (50-67), MVF-PD-L1 (95-112) and MVF-PD-L1 (130-147) emulsified with nor-MDP and Montanide 720 (1:1 ratio) SCHEME 1A (FIG. 5A). As detailed in SCHEME 1A-D (FIGS. 5A, 5B, 5C, and 5D), mice were immunized 3 times at 3 weeks intervals. […] All PD-L1 epitopes elicited high titers of PD-L1 anti-peptide antibodies by ELISA. […] We also investigated the combination of PD-1(92-110) with PD-L1-130-147.
For each peptide, vaccine antibodies were raised in New Zealand white rabbits, purchased from Charles River Laboratories (Wilmington, MA, USA). Rabbits were immunized with 1 mg of MVF chimeric peptide emulsified in Montanide ISA 720 (Seppic, Paris, France) and boosted 3 times at three week intervals. For mouse experiments, mice, 6-8 weeks old, were immunized with 0.1 mg of peptide emulsified in ISA720 (1:1 ratio). Mice were boosted with the respective doses at 3-week intervals. Blood was then collected and sera were tested for antibody titers. Sera were collected weekly and peptide vaccine antibodies were purified by affinity chromatography using a protein A/G column and the concentration was measured using Spectrophometer. All experiments were performed in accordance with the U.S. Public Health Service Policy on Humane Care and Use of Laboratory animals and approved by the Ohio State University Institutional Animals Care and Use Committee, detailed in the accepted protocol.
6-8 weeks old BALB/c mice (Charles River, Wilmington, MA) were used as standard animal models. Mouse CT26 colon carcinoma cell line was purchased from American Type Culture Collection Cells and were regularly cultured in RPMI1640 medium containing 10% FBS. CT26/HER2 cells were kindly provided by M. Penichet. Vaccines were dissolved in sterile water and emulsified in Montanide ISA 720 (1:1). […]

With “KLLSLIKGVIVHRLEGVEGPSLFVHGEEDLKVQHSSYRQR (KLLSLIKGVIVHRLEGVEGPSLFVHGEEDLKVQHSSYRQR-NH2) [PD-L1(50)]” the “Immunogenicity (titers) 1′ Conc. 1:” value (bleed 1Y + 3) was 6400, the “Immunogenicity (titers) 1′ Conc. 1:” value (bleed 2Y + 1) was 12800 and the “Immunogenicity (titers) 1′ Conc. 1:” value (bleed 2Y + 2) was 12800. For the same sequence, the “Immunogenicity (titers) 1′ Conc. 1:” value (bleed 2Y + 3) was 12800, the “Immunogenicity (titers) 1′ Conc. 1:” value (bleed 3Y + 1) was 128000 and the “Immunogenicity (titers) 1′ Conc. 1:” value (bleed 3Y + 2) was 128000. The “Immunogenicity (titers) 1′ Conc. 1:” value (bleed 3Y + 3) was 128000, the “ELISA absorbance of sera” value (bleed 1Y + 3 (1to100), dilution 100, bleed 1Y + 3) was 1.459 and 1.424 and the “ELISA absorbance of sera” value (bleed 1Y + 3 (1to100), dilution 200, bleed 1Y + 3) was 1.338 and 1.282. The “ELISA absorbance of sera” value (bleed 1Y + 3 (1to100), dilution 400, bleed 1Y + 3) was 1.131 and 1.099, the “ELISA absorbance of sera” value (bleed 1Y + 3 (1to100), dilution 800, bleed 1Y + 3) was 0.878 and 0.852 and the “ELISA absorbance of sera” value (bleed 1Y + 3 (1to100), dilution 1,600, bleed 1Y + 3) was 0.639 and 0.588. The “ELISA absorbance of sera” value (bleed 1Y + 3 (1to100), dilution 3,200, bleed 1Y + 3) was 0.398 and 0.365, the “ELISA absorbance of sera” value (bleed 1Y + 3 (1to100), dilution 6,400, bleed 1Y + 3) was 0.239 and 0.213 and the “ELISA absorbance of sera” value (bleed 1Y + 3 (1to100), dilution 12,800, bleed 1Y + 3) was 0.143 and 0.129. The “ELISA absorbance of sera” value (bleed 2Y + 1 (1to100), dilution 100, bleed 2Y + 1) was 1.243 and 1.292, the “ELISA absorbance of sera” value (bleed 2Y + 1 (1to100), dilution 200, bleed 2Y + 1) was 1.279 and 1.274 and the “ELISA absorbance of sera” value (bleed 2Y + 1 (1to100), dilution 400, bleed 2Y + 1) was 1.241 and 1.170. For the same sequence, the “ELISA absorbance of sera” value (bleed 2Y + 1 (1to100), dilution 800, bleed 2Y + 1) was 1.127 and 1.002, the “ELISA absorbance of sera” value (bleed 2Y + 1 (1to100), dilution 1,600, bleed 2Y + 1) was 0.923 and 0.887 and the “ELISA absorbance of sera” value (bleed 2Y + 1 (1to100), dilution 3,200, bleed 2Y + 1) was 0.721 and 0.666. The “ELISA absorbance of sera” value (bleed 2Y + 1 (1to100), dilution 6,400, bleed 2Y + 1) was 0.480 and 0.471, the “ELISA absorbance of sera” value (bleed 2Y + 1 (1to100), dilution 12,800, bleed 2Y + 1) was 0.332 and 0.274 and the “ELISA absorbance of sera” value (bleed 2Y + 2 (1to100), dilution 100) was 1.298 and 1.343. The “ELISA absorbance of sera” value (bleed 2Y + 2 (1to100), dilution 200) was 1.310 and 1.286, the “ELISA absorbance of sera” value (bleed 2Y + 2 (1to100), dilution 400) was 1.241 and 1.190 and the “ELISA absorbance of sera” value (bleed 2Y + 2 (1to100), dilution 800) was 1.144 and 1.093. The “ELISA absorbance of sera” value (bleed 2Y + 2 (1to100), dilution 1,600) was 0.964 and 0.893, the “ELISA absorbance of sera” value (bleed 2Y + 2 (1to100), dilution 3,200) was 0.741 and 0.670 and the “ELISA absorbance of sera” value (bleed 2Y + 2 (1to100), dilution 6,400) was 0.519 and 0.487. The “ELISA absorbance of sera” value (bleed 2Y + 3 (1to1k), dilution 100) was 1.054 and 1.076, the “ELISA absorbance of sera” value (bleed 2Y + 3 (1to1k), dilution 200) was 1.008 and 1.012 and the “ELISA absorbance of sera” value (bleed 2Y + 3 (1to1k), dilution 400) was 0.952 and 0.915. For the same sequence, the “ELISA absorbance of sera” value (bleed 2Y + 3 (1to1k), dilution 800) was 0.827 and 0.819, the “ELISA absorbance of sera” value (bleed 2Y + 3 (1to1k), dilution 1,600) was 0.708 and 0.703 and the “ELISA absorbance of sera” value (bleed 2Y + 3 (1to1k), dilution 3,200) was 0.534 and 0.514. For the same sequence, the “ELISA absorbance of sera” value (bleed 2Y + 3 (1to1k), dilution 6,400) was 0.351 and 0.332, the “ELISA absorbance of sera” value (bleed 3Y + 1 (1to1k), dilution 100, bleed 3Y + 1) was 1.191 and 1.215 and the “ELISA absorbance of sera” value (bleed 3Y + 1 (1to1k), dilution 200, bleed 3Y + 1) was 1.138 and 1.143. For the same sequence, the “ELISA absorbance of sera” value (bleed 3Y + 1 (1to1k), dilution 400, bleed 3Y + 1) was 1.076 and 1.034, the “ELISA absorbance of sera” value (bleed 3Y + 1 (1to1k), dilution 800, bleed 3Y + 1) was 0.935 and 0.925 and the “ELISA absorbance of sera” value (bleed 3Y + 1 (1to1k), dilution 1,600, bleed 3Y + 1) was 0.800 and 0.794. The “ELISA absorbance of sera” value (bleed 3Y + 1 (1to1k), dilution 3,200, bleed 3Y + 1) was 0.603 and 0.581, the “ELISA absorbance of sera” value (bleed 3Y + 1 (1to1k), dilution 6,400, bleed 3Y + 1) was 0.397 and 0.375 and the “ELISA absorbance of sera” value (bleed 3Y + 2 (1to1k), dilution 100, bleed 3Y + 2) was 1.608 and 1.586. The “ELISA absorbance of sera” value (bleed 3Y + 2 (1to1k), dilution 200, bleed 3Y + 2) was 1.503 and 1.479, the “ELISA absorbance of sera” value (bleed 3Y + 2 (1to1k), dilution 400, bleed 3Y + 2) was 1.384 and 1.401 and the “ELISA absorbance of sera” value (bleed 3Y + 2 (1to1k), dilution 800, bleed 3Y + 2) was 1.185 and 1.213. For the same sequence, the “ELISA absorbance of sera” value (bleed 3Y + 2 (1to1k), dilution 1,600, bleed 3Y + 2) was 0.961 and 0.959, the “ELISA absorbance of sera” value (bleed 3Y + 2 (1to1k), dilution 3,200, bleed 3Y + 2) was 0.684 and 0.694 and the “ELISA absorbance of sera” value (bleed 3Y + 2 (1to1k), dilution 6,400, bleed 3Y + 2) was 0.462. The “ELISA absorbance of sera” value (bleed 3Y + 3 (1to1k), dilution 100, bleed 3Y + 3) was 1.740 and 1.779, the “ELISA absorbance of sera” value (bleed 3Y + 3 (1to1k), dilution 200, bleed 3Y + 3) was 1.596 and 1.638 and the “ELISA absorbance of sera” value (bleed 3Y + 3 (1to1k), dilution 400, bleed 3Y + 3) was 1.445 and 1.469. For the same sequence, the “ELISA absorbance of sera” value (bleed 3Y + 3 (1to1k), dilution 800, bleed 3Y + 3) was 1.181 and 1.217, the “ELISA absorbance of sera” value (bleed 3Y + 3 (1to1k), dilution 1,600, bleed 3Y + 3) was 0.867 and 0.967 and the “ELISA absorbance of sera” value (bleed 3Y + 3 (1to1k), dilution 3,200, bleed 3Y + 3) was 0.621 and 0.629. The “ELISA absorbance of sera” value (bleed 3Y + 3 (1to1k), dilution 6,400, bleed 3Y + 3) was 0.359.

From patent publication US12589143B2, “Human anti-PD-L1 peptide vaccines and methods of their use” (priority 2019, dated 2026)
